Numbers after ± are expanded uncertainties.
Conditions: 101.33 kPa, Liquid, Vibrating tube method

CCCCCC[n+]1ccn(C)c1.O=S(=O)([N-]S(=O)(=O)C(F)(F)F)C(F)(F)F
Conditions	mass density [kg/m3]
293.15 K	1377.1 ± 0.6
298.15 K	1372.5 ± 0.6
303.15 K	1367.8 ± 0.6
308.15 K	1363.5 ± 0.5
313.15 K	1358.7 ± 0.5
318.15 K	1354.3 ± 0.5
323.15 K	1349.6 ± 0.5
328.15 K	1345.2 ± 0.5
333.15 K	1340.5 ± 0.5
338.15 K	1336.2 ± 0.5
343.15 K	1331.6 ± 0.5
